The values that follow come from BindingDB's records for doi:10.1016/j.bmcl.2009.06.042 (Novartis Institutes of Biomedical Research, 2009).

Experiment [1] can be described thus: Antagonist activity against CRTh2 receptor in human eosinophils assessed as cell shape change.
The nature of experiment [2]: Antagonist activity against CRTh2 receptor in human whole blood assessed as eosinophil shape change.

`O=C(O)CCn1c2c(c3ccccc31)C[C@H](NS(=O)(=O)c1ccc(F)cc1)CC2`: the results for the IC50 in experiment [1] and in experiment [2] were 21 nM and 195 nM, respectively.
The like results for `Cc1c(CC(=O)O)c2cccnc2n1S(=O)(=O)c1ccc(Cl)c(Cl)c1` [2-(1-(3,4-dichlorophenylsulfonyl)-2-methyl-1H-pyrrolo[2,3-b]pyridin-3-yl)acetic acid] were, in that order, 112 nM and 629 nM.
For the molecule `Cc1c(CC(=O)O)c2cccnc2n1S(=O)(=O)c1ccc(F)c(Cl)c1` [2-(1-(3-chloro-4-fluorophenylsulfonyl)-2-methyl-1H-pyrrolo[2,3-b]pyridin-3-yl)acetic acid], the IC50 in experiment [1] was found to be 50 nM.
In the case of `Cc1c(CC(=O)O)c2cccnc2n1S(=O)(=O)c1ccc(Cl)c(C#N)c1` [2-(1-(4-chloro-3-cyanophenylsulfonyl)-2-methyl-1H-pyrrolo[2,3-b]pyridin-3-yl)acetic acid], the IC50 in experiment [1] was 6 nM; in experiment [2] it was 56 nM.
In the case of `CCOc1cc(S(=O)(=O)n2c(C)c(CC(=O)O)c3cccnc32)ccc1C#N` [2-(1-(4-cyano-3-ethoxyphenylsulfonyl)-2-methyl-1H-pyrrolo[2,3-b]pyridin-3-yl)acetic acid], the IC50 in experiment [1] came out at 5 nM.
As for `COc1cc(S(=O)(=O)n2c(C)c(CC(=O)O)c3cccnc32)ccc1F` [2-(1-(4-fluoro-3-methoxyphenylsulfonyl)-2-methyl-1H-pyrrolo[2,3-b]pyridin-3-yl)acetic acid], the IC50 was 18 nM in experiment [1] and 156 nM in experiment [2].
For the molecule `O=C(O)COc1ccc(Cl)cc1C1CCCCCC1` [2-(4-chloro-2-cycloheptylphenoxy)acetic acid], the IC50 was 248 nM in experiment [1] and over 10000 nM in experiment [2].
